The values below come from ChEMBL document CHEMBL3421539, “A novel cell-permeable, selective, and noncompetitive inhibitor of KAT3 histone acetyltransferases from a combined molecular pruning/classical isosterism approach” (J Med Chem, 2015).

Series [1] concerns the target Histone acetyltransferase KAT2B (Homo sapiens, UniProt Q92831). As to the kind of experiment: Inhibition of recombinant PCAF (unknown origin).
A short description of series [2]: Cell cycle arrest in human U937 cells assessed as increase in hypodiploid nuclei level at 100 uM after 72 hrs by Nicoletti method. Format: functional, cell-based. Particulars: U-937.
The nature of series [3]: Cytotoxicity against human U937 cells assessed as cell viability at 10 to 100 uM after 24 hrs by MTT assay. Format: cell-based. Particulars: u-937, 24 h. For orientation: Tetrazolium dyes change colour on reduction, which living cells bring about.
The target in a further series is CREB-binding protein (Homo sapiens, UniProt Q92793). The series is described as follows: Inhibition of recombinant CBP (unknown origin).
CREB-binding protein, sequence (Q92793 whole entry): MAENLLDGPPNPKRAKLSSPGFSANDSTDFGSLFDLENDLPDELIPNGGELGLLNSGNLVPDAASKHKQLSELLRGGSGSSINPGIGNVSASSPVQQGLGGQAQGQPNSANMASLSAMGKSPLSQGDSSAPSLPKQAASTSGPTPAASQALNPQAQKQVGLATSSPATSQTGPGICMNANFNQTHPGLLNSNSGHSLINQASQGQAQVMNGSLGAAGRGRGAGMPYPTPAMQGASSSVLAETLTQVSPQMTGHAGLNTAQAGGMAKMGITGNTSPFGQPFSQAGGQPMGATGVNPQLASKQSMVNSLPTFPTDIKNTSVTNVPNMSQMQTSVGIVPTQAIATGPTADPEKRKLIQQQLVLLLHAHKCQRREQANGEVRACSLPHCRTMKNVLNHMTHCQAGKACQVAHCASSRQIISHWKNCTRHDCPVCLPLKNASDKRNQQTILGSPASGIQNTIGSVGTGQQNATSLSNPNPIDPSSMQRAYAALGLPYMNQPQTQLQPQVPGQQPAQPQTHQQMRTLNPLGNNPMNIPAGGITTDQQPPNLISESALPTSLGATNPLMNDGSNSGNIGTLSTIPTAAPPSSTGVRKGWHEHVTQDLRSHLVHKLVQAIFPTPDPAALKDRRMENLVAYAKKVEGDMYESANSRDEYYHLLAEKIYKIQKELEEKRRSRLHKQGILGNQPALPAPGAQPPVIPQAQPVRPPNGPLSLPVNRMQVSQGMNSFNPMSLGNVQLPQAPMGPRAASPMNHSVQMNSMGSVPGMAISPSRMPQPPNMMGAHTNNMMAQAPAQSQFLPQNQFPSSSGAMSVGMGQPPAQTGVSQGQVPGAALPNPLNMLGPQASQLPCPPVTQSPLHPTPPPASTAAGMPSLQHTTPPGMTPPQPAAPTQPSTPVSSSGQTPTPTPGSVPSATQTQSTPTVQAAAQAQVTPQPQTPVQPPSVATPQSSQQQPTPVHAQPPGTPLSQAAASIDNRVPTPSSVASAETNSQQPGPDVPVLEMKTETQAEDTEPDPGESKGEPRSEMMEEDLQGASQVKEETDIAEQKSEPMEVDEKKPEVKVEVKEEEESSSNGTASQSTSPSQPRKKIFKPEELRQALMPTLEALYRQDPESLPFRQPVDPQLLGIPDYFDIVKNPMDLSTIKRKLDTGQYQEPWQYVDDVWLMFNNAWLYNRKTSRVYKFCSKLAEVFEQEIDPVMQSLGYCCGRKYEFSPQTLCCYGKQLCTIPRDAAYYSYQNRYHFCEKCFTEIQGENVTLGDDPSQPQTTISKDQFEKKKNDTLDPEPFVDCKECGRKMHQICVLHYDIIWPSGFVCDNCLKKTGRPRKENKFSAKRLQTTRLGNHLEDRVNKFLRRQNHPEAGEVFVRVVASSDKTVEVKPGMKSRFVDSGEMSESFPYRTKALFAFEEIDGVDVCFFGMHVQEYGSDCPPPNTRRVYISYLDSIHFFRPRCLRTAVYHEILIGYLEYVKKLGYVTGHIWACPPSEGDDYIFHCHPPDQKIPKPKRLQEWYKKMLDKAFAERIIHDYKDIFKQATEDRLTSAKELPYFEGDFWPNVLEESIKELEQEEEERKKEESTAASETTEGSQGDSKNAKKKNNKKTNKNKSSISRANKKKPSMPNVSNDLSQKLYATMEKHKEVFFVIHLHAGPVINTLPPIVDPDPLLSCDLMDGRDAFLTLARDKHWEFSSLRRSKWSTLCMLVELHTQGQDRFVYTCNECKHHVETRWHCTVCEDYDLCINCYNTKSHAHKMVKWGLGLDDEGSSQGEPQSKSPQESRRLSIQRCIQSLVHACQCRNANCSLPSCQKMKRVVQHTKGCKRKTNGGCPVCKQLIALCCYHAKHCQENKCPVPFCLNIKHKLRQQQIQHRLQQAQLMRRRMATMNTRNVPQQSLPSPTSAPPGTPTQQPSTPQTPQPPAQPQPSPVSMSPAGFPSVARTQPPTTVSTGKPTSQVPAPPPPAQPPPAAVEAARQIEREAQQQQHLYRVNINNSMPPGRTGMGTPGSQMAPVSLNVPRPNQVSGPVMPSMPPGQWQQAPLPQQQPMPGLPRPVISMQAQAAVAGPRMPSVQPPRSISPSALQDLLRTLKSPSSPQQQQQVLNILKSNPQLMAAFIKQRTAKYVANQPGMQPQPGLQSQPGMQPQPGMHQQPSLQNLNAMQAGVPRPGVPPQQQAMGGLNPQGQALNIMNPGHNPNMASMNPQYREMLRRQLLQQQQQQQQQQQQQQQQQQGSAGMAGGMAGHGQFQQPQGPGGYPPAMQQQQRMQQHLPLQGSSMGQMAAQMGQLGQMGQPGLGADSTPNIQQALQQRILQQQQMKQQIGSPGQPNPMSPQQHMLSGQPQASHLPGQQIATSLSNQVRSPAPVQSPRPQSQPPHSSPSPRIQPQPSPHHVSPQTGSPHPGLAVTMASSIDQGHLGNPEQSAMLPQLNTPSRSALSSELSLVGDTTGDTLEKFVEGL
For series [4], the target named is T1, Histone acetyltransferase p300 (Homo sapiens, UniProt Q09472). As to the kind of experiment: Reversible inhibition of P300 (unknown origin).
T1 sequence (Q09472 whole entry): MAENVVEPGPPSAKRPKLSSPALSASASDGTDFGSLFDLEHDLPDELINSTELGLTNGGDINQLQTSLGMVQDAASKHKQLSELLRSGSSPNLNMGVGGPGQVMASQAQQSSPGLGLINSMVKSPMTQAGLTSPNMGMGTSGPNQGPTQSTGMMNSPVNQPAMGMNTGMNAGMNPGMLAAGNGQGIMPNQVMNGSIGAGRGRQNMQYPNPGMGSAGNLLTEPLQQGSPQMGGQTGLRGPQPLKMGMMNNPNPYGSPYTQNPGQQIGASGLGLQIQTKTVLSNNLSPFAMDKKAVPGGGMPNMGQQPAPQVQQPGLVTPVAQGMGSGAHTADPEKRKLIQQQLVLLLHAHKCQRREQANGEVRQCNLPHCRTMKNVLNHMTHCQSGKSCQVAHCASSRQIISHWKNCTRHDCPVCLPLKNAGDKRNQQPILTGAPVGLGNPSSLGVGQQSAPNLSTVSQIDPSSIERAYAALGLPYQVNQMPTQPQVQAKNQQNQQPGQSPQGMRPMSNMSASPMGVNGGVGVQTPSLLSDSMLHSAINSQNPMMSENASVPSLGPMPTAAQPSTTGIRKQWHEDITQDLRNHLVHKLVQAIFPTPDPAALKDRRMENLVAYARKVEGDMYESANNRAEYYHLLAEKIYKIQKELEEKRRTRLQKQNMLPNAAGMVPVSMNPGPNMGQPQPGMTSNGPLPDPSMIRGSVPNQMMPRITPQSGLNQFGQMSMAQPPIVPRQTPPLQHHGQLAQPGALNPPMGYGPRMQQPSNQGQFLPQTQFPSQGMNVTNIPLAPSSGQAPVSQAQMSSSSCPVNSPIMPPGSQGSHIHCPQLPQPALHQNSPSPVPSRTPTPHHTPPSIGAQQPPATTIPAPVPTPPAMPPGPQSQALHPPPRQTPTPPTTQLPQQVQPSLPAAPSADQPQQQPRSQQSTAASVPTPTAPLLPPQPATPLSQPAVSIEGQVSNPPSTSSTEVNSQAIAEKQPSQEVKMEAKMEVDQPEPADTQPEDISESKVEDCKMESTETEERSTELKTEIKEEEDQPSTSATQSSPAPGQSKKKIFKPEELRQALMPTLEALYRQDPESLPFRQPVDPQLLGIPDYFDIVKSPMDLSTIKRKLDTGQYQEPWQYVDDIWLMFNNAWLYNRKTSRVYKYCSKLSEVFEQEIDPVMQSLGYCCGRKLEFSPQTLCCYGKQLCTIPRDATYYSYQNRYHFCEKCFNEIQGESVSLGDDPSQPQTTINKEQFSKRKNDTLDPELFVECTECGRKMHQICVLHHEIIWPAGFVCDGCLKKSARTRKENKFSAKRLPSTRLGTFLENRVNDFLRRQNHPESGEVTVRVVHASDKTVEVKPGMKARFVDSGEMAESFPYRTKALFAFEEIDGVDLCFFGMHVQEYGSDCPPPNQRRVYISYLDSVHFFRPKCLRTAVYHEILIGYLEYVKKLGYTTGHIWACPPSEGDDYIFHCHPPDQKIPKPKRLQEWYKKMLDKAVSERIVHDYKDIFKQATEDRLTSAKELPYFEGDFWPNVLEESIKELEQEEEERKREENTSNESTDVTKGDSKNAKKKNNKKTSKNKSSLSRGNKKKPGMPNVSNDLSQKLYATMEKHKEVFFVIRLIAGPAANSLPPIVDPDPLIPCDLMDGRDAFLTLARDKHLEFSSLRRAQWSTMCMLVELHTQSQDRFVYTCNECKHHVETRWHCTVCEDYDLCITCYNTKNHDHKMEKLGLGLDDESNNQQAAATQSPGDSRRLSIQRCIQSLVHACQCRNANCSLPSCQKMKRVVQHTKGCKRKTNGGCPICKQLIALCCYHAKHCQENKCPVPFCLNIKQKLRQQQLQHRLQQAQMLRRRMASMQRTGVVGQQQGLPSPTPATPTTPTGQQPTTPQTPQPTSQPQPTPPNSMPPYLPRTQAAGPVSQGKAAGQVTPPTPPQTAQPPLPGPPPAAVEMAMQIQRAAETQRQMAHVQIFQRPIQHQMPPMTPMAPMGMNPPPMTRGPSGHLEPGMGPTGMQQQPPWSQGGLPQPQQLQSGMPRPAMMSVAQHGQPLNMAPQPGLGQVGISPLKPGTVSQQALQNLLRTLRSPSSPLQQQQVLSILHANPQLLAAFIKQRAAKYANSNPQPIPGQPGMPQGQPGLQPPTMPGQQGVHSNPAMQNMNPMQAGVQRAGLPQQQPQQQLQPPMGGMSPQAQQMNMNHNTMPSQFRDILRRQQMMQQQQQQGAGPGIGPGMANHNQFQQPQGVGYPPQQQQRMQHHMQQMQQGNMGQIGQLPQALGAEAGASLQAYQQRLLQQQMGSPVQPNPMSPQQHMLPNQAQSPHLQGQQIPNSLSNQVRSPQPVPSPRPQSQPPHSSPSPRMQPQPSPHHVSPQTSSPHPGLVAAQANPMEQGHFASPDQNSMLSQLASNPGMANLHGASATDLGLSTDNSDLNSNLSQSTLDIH
The nature of series [5]: Induction of beta-mercaptoethanol adduct formation in PBS after 30 mins to 24 hrs by HPLC analysis.
For series [6], the target named is T1, Histone acetyltransferase p300. The series is described as follows: Noncompetitive inhibition of P300 (unknown origin) using acetyl CoA as substrate after 15 mins by double reciprocal plot analysis.
The target is the same in series [7]. As to the kind of experiment: Inhibition of P300 in human U937 cells assessed as reduction in H4K5 histone acetylation at 100 uM by immunoblotting analysis. The series is classed as cell-based. Particulars: U-937, TDE = time-dependent effect.
Series [8] can be described thus: Cell cycle arrest in human U937 cells assessed as accumulation at G0/G1 phase at 100 uM after 72 hrs by propidium iodide staining-based FACS analysis. The series is classed as functional. Particulars: U-937. A general note: In flow cytometry, cells or beads pass a laser one at a time.
In series [9] the target is T1, Histone acetyltransferase p300. The series is described as follows: Inhibition of P300 in human U937 cells assessed as reduction in H3K9 histone acetylation at 100 uM by immunoblotting analysis. The series is classed as cell-based. Particulars: U-937, TDE = time-dependent effect.
Series [10] shares this target. As to the kind of experiment: Inhibition of recombinant P300 (unknown origin).
The nature of series [11]: Apparent permeability of the compound at RT after 24 hrs by PAMPA. Format: physicochemical.
Series [12] deals with Histone acetyltransferase KAT2A (Homo sapiens) (UniProt Q92830). As to the kind of experiment: Inhibition of recombinant GCN5 (unknown origin).
The target in series [13] is T1, Histone acetyltransferase p300. The series is described as follows: Noncompetitive inhibition of P300 (unknown origin) using biotinylated H3 as substrate after 15 mins by double reciprocal plot analysis.
The nature of series [14]: Stability of the compound in PBS at 25 degC after 2 mins to 24 hrs by HPLC analysis. The series is classed as physicochemical. Particulars: buffer.

What is called IC50 is the midpoint of a concentration-inhibition curve. As a reminder, the Ki is a dissociation constant, usually derived from enzyme kinetics or from competition with a known ligand. A lower Ki goes with tighter binding. In general, Papp refers to the rate of passage across a membrane or cell layer, normalised by area and donor concentration.

SMILES strings stand for the structures. The source made the active and inactive calls. No cut-off for these calls is given here.

With `Cc1cc(O)cc(C)c1C=C1C(=O)N(Cc2ccccc2)C(=O)N(Cc2ccccc2)C1=O`, the inhibition entry in series [1] and in [12] was “inactive” each time. In addition, the outcome in series [2] and in series [8] was Active. Also, in series [3], the Activity entry was “Non-toxic”. In addition, the IC50 on CREB-binding protein worked out at 1100 nM; in series [10], 2900 nM. In addition, the inhibition result in series [4] is “Active”. Also, the outcome in series [5] was inactive. Also, the inhibition constant (Ki) in [6] was 2000 nM; in series [13], 9400 nM. In addition, the alphaKi in series [6] turned out to be 5.7 µM; in series [13] it was 6.8 µM. In addition, the inhibition entry in series [7] and in [9] was “tde” throughout. In [11], the Papp at 24 h turned out to be 1.9 ×10⁻⁶ cm/s. Also, the Stability result in [14] is recorded as “Stable”.
